{
  "source": "paper PMC8191380",
  "about": "(Nucleosides, nucleotides & nucleic acids, 2019)",
  "key": {"[1]": {"conditions": "cited from earlier work"}, "HBV [2]": {"tested_on": "HBV", "conditions": "read-out: anti-HBV activity EC50; cited from earlier work"}, "MT-2 cells": {"tested_on": "MT-2 cells", "test": "Cytotoxicity in MT-2 cells", "type": "cell-based", "conditions": "for CC50: read-out: CC50 (50% cytotoxic concentration)"}, "HBV [3]": {"tested_on": "HBV", "test": "Anti-HBV assay in HBV-producing HepG2 2.2.15 cells", "type": "cell-based, Hepatitis B virus", "conditions": "read-out: EC50 (50% effective concentration; concentration that inhibits 50% of virus replication)"}, "wild-type HBV": {"tested_on": "wild-type HBV", "conditions": "cited from earlier work"}, "HIV [4]": {"tested_on": "HIV", "conditions": "cited from earlier work"}, "entecavir-resistant HBV": {"tested_on": "entecavir-resistant HBV", "conditions": "cited from earlier work"}, "[5]": {"test": "Cytotoxicity in MT-2 cells", "type": "cell-based", "conditions": "human"}, "HIV-1": {"tested_on": "HIV-1", "conditions": "cited from earlier work"}, "HBV [6]": {"tested_on": "HBV", "conditions": "cited from earlier work; for EC50: read-out: anti-HBV activity EC50"}, "HBV [7]": {"tested_on": "HBV", "conditions": "read-out: anti-HBV activity EC50; cited from earlier work", "remark": "listed apart in the source"}, "HIV [8]": {"tested_on": "HIV", "conditions": "read-out: anti-HIV activity EC50; reported in 1992; cited from earlier work"}, "[9]": {"conditions": "HepG2 2.2.15 cells, day 14, HBV DNA"}, "[10]": {"conditions": "Hepatitis B virus, HepG2 2.2.15, 336 h"}},
  "note": "Read-outs that look alike come from different tables or passages of the source.",
  "data": [
    {"smiles": "[N-]=[N+]=N[C@]1(CO)O[C@@H](n2ccc(N)nc2=O)C[C@@H]1O", "note": "[4′-azido-2′-deoxycytidine]", "values": [
      {"measurement": "cytotoxicity CC25", "setting": "[1]", "value": 0.21, "unit": "µM"}
    ]},
    {"smiles": "[N-]=[N+]=N[C@]1(CO)O[C@@H](n2ccc(N)nc2=O)[C@H](F)[C@@H]1O", "note": "[Compound 5, 2′-deoxy-2′-P-fluoro-4′-azido cytidine]", "values": [
      {"measurement": "EC50", "setting": "HBV [2]", "value": 0.12, "unit": "µM"}
    ]},
    {"smiles": "COc1nc(=O)n(C2CC(O)C(CO)(N=[N+]=[N-])O2)cc1C", "note": "(stereo not shown) [Compound 11, 4′-Azido-O^4-methylthymidine]", "values": [
      {"measurement": "CC50", "setting": "MT-2 cells", "value": "> 100", "unit": "µM"},
      {"measurement": "EC50", "setting": "HBV [3]; [9]", "value": "> 100", "unit": "µM"}
    ]},
    {"smiles": "N#C[C@]1(CO)O[C@@H](n2cnc3c(N)nc(N)nc32)C[C@@H]1O", "note": "[Compound 2, 4′-cyano-2-amino-2′-deoxyadenosine]", "values": [
      {"measurement": "replication of wild-type HBV (in words)", "setting": "wild-type HBV", "value": "block the replication"},
      {"measurement": "anti-HIV activity (in words)", "setting": "HIV [4]", "value": "potent anti-HIV activity"},
      {"measurement": "replication of entecavir-resistant HBV (in words)", "setting": "entecavir-resistant HBV", "value": "block the replication"}
    ]},
    {"smiles": "N#C[C@]1(CO)O[C@@H](n2cnc3c(=O)[nH]c(N)nc32)C[C@@H]1O", "note": "[Compound 1, 4′-cyano-2′-deoxyguanosine]", "values": [
      {"measurement": "replication of wild-type HBV (in words)", "setting": "wild-type HBV", "value": "block the replication"},
      {"measurement": "anti-HIV activity (in words)", "setting": "HIV [4]", "value": "potent anti-HIV activity"},
      {"measurement": "replication of entecavir-resistant HBV (in words)", "setting": "entecavir-resistant HBV", "value": "block the replication"}
    ]},
    {"smiles": "CCNc1nc(=O)n([C@H]2C[C@H](O)[C@](CO)(N=[N+]=[N-])O2)cc1C", "note": "[Compound 14, 4′-Azido-2′-deoxy-N^4-ethyl-5-methylcytidine]", "values": [
      {"measurement": "CC50", "setting": "[5]", "value": "> 100", "unit": "µM"},
      {"measurement": "EC50", "setting": "HBV [3]; [10]", "value": "> 100", "unit": "µM"}
    ]},
    {"smiles": "Cc1cn([C@H]2C[C@H](O)[C@](CO)(N=[N+]=[N-])O2)c(=O)nc1NC1CC1", "note": "[Compound 15, 4′-Azido-N′-cyclopropyl-2′-deoxy-5-methylcytidine]", "values": [
      {"measurement": "CC50", "setting": "MT-2 cells", "value": "> 100", "unit": "µM"},
      {"measurement": "EC50", "setting": "HBV [3]; [9]", "value": "> 100", "unit": "µM"}
    ]},
    {"smiles": "CNc1nc(=O)n([C@H]2C[C@H](O)[C@](CO)(N=[N+]=[N-])O2)cc1C", "note": "[Compound 13, 4′-Azido-2′-deoxy-N4,5-dimethylcytidine]", "values": [
      {"measurement": "CC50", "setting": "[5]", "value": "> 100", "unit": "µM"},
      {"measurement": "EC50", "setting": "HBV [3]; [10]", "value": "> 100", "unit": "µM"}
    ]},
    {"smiles": "Cc1cn([C@H]2C[C@H](O)[C@](CO)(N=[N+]=[N-])O2)c(=O)nc1N", "note": "[Compound 10, 4′-Azido-2′-deoxy-5-methylcytidine]", "values": [
      {"measurement": "no cytotoxicity up to (concentration)", "setting": "MT-2 cells", "value": "> 100", "unit": "µM"},
      {"measurement": "CC50", "setting": "[5]", "value": "> 100", "unit": "µM"},
      {"measurement": "EC50", "setting": "HBV [3]; [10]", "value": "5.99 ± 5.54", "unit": "µM"}
    ]},
    {"smiles": "[N-]=[N+]=N[C@]1(CO)O[C@@H](n2cnc3c(=O)[nH]c(N)nc32)C[C@@H]1O", "note": "[Compound 3, 4′-azido-2′-deoxyguanosine]", "values": [
      {"measurement": "potency against HIV-1 (in words)", "setting": "HIV-1", "value": "highly potent"},
      {"measurement": "potency against HBV (in words)", "setting": "HBV [6]", "value": "highly potent"},
      {"measurement": "EC50", "setting": "HBV [6]", "value": 0.0097, "unit": "µM"}
    ]},
    {"smiles": "CCOc1nc(=O)n([C@H]2C[C@H](O)[C@](CO)(N=[N+]=[N-])O2)cc1C", "note": "[Compound 12, 4′-Azido-O^4-ethylthymidine]", "values": [
      {"measurement": "CC50", "setting": "MT-2 cells", "value": "> 100", "unit": "µM"},
      {"measurement": "EC50", "setting": "HBV [3]; [9]", "value": "> 100", "unit": "µM"}
    ]},
    {"smiles": "[N-]=[N+]=N[C@]1(CO)O[C@@H](n2cnc3c(N)nc(N)nc32)C[C@@H]1O", "note": "[Compound 4, 4′-azido-2-amino-2′-deoxyadenosine]", "values": [
      {"measurement": "potency against HIV-1 (in words)", "setting": "HIV-1", "value": "highly potent"},
      {"measurement": "potency against HBV (in words)", "setting": "HBV [6]", "value": "highly potent"},
      {"measurement": "EC50", "setting": "HBV [6]", "value": 0.0051, "unit": "µM"}
    ]},
    {"smiles": "Cc1cn([C@H]2C[C@H](F)[C@@H](CO)O2)c(=O)nc1N", "note": "[Compound 8, FddMeC]", "values": [
      {"measurement": "EC50", "setting": "HBV [7]", "value": 0.54, "unit": "µM"}
    ]},
    {"smiles": "Cc1cn([C@H]2C[C@H](O)[C@](CO)(N=[N+]=[N-])O2)c(=O)[nH]c1=O", "note": "[Compound 6, 4′-azido thymidine]", "values": [
      {"measurement": "no cytotoxicity up to (concentration)", "setting": "MT-2 cells", "value": "> 100", "unit": "µM"},
      {"measurement": "CC50", "setting": "[5]", "value": "> 100", "unit": "µM"},
      {"measurement": "EC50", "setting": "HBV [3]; [10]", "value": "0.63 ± 0.29", "unit": "µM"},
      {"measurement": "EC50", "setting": "HIV [8]", "value": 0.01, "unit": "µM"}
    ]},
    {"smiles": "C=C1[C@H](CO)[C@@H](O)C[C@@H]1n1cnc2c(=O)[nH]c(N)nc21", "note": "[Entecavir]", "values": [
      {"measurement": "CC50", "setting": "[5]", "value": "57.2 ± 5.2", "unit": "µM"},
      {"measurement": "EC50", "setting": "HBV [3]; [10]", "value": "0.00675 ± 0.000353", "unit": "µM"}
    ]}
  ]
}
